{"source": "patent US20240197742A1", "about": "“Therapeutic Combinations of a CD19 Inhibitor and a BTK Inhibitor” (Acerta Pharma B.V., priority 2015, published 2024)", "key": {"[1]": {"assay": "Glutathione binding and depletion in vitro", "format": "in vitro ADME", "from_the_text": "(§1) No unique human metabolite was identified. Preliminary evaluations of metabolism in the plasma, bile, and urine of rats, dogs, and monkeys indicated metabolic processes of oxidation, glutathione binding, and hydrolysis."}, "[2]": {"tested_on": "CYP enzymes", "assay": "Nonclinical CYP interaction studies", "format": "in vitro ADME", "from_the_text": "as §1"}, "[3]": {"tested_on": "B cell receptor", "assay": "Whole blood potency: CD69 on CD19+ B cells after anti-human IgD", "format": "cell-based", "conditions": "blood from four healthy donors, 2 hours with compound, anti-human IgD 10 μg/mL 18 hours, read-out: EC50, CD69 on gated CD19+ B cells in whole blood"}, "[4]": {"tested_on": "ID8 ovarian cancer", "assay": "ID8 syngeneic orthotropic ovarian cancer murine model", "format": "in vivo, mouse", "conditions": "15 mg/kg/BID given orally", "from_the_text": "Human ovarian cancer models, including the ID8 syngeneic orthotropic ovarian cancer model and other animal models, are described in Fong and Kakar, J. Ovarian Res. 2009, 2, 12; Greenaway, et al., Gynecol. Oncol. 2008, 108, 385-94; Urzua, et al., Tumour Biol. 2005, 26, 236-44; Janat-Amsbury, et al., Anticancer Res. 2006, 26, 3223-28; Janat-Amsbury, et al., Anticancer Res. 2006, 26, 2785-89. […] The results of the study are shown in FIG. 13, FIG. 14, FIG. 15, FIG. 16, FIG. 17, FIG. 18, FIG. 19, and FIG. 20."}, "[5]": {"tested_on": "pancreatic cancer (KPC mice)", "assay": "KPC pancreatic cancer model", "format": "in vivo", "description": "The KPC mouse model recapitulates many of the molecular, histopathologic, and clinical features of human disease (Westphalen and Olive, Cancer J. 2012, 18, 502-510). Combination therapy with gemcitabine was also evaluated in this model. Mice were enrolled after identification of spontaneously appearing tumors in the pancreas that were ≥100 mm^3 (as assessed by high-resolution ultrasonography)."}, "[6]": {"target": "T1, BTK (Mus musculus, UniProt P35991)", "T1 construct": "MDSCs were purified from tumor bearing PDA mice; from tissue; host or cells: granulocytic and monocytic MDSCs from tumor-bearing PDA mice dosed in vivo", "T1 sequence (P35991 whole entry)": "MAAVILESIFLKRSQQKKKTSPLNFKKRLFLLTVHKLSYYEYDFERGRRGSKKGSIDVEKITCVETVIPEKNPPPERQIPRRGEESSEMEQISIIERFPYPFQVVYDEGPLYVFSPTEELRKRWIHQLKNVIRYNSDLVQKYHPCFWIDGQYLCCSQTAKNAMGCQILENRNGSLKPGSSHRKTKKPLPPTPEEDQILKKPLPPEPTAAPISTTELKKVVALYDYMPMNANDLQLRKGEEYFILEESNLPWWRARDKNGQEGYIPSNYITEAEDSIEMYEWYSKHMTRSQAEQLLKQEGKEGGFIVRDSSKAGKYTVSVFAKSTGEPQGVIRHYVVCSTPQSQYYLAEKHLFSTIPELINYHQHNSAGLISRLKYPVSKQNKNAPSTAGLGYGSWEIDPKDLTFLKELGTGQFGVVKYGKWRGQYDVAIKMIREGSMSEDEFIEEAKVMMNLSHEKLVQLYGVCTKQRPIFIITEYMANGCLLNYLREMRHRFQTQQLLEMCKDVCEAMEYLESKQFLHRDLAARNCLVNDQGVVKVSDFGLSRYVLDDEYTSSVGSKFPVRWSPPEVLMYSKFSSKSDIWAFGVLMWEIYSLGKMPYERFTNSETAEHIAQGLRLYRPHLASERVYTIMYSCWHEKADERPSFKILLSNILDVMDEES", "assay": "Molecular probe assay of irreversible BTK occupancy in MDSCs", "format": "in vivo", "conditions": "tumor bearing PDA mice, 15 mg/kg BID; Day 8 at 4 hours post dose (N=5)"}, "[7]": {"tested_on": "NK cells", "assay": "Whole blood NK cell degranulation with obinutuzumab-opsonised MEC-1 cells", "format": "cell-based, human", "conditions": "1 hour pretreatment (10, 1, 0.1 μM), MEC-1 opsonised with obinutuzumab 1 μg/mL, 4 hours, n=3", "procedure": "Degranulation in whole blood was performed as follows. […] Exponentially growing cells were used. On the day of the experiment, 8 mL of blood was drawn from a normal volunteer into a test tube containing desirudin to obtain a final concentration of 50 μg/mL. A white blood cell (WBC) count of whole blood was performed. […] The ibrutinib control and two blinded BTK inhibitors were diluted in X-VIVO 15 serum-free hematopoietic cell medium (Lonza Group, Ltd.) to concentrations of 200 μM, 20 μM and 2 μM. 170 μL aliquots of unmanipulated whole blood were incubated with 10 μL BTK inhibitors or X-VIVO 15 medium for one hour into a plate. […] The samples were placed in a 5% CO2 incubator for 4 hours at 37° C.\nAfter 4 hours, the samples were mixed gently and 50 μL aliquots were removed from each well and placed in fluorescence-activated cell sorting (FACS) test tubes. A 20 μL aliquot of anti-CD56-APC antibody and anti-CD107a-PE antibody was added. The samples were incubated for 20 minutes at room temperature in the dark. An aliquot of 2 mL of FACS lysing solution (BD Biosceinces) was added. The samples were again incubated for 5 minutes, and then centrifuged at 2000 rpm for 5 minutes. Supernatant was discarded and the cell pellet was resuspended in 500 μL of PBS. The samples were analyzed on the flow cytometer for CD107a^+ NK cells (CD56^+)."}, "[8]": {"tested_on": "Th17 cells", "assay": "Th17 development from enriched CD4+ T cells", "format": "cell-based", "conditions": "anti-TCRβ plus anti-CD28, skewing cytokines, 4 days", "description": "(§2) Enriched CD4^+ T cells are plated on 24-well culture dishes that have been precoated 2 hr with 250 μL anti-TCRβ (0.5 μg/mL) plus anti-CD28 (5 μg/mL) at 37° C. in PBS. The cells are then supplemented with media containing BTK inhibitors along with the skewing cytokines as indicated in the following. The Th17 and Treg cultures are grown for 4 days before analysis. The cells are maintained for an additional 3 days with skewing cytokines (Th17; 20 ng/mL IL-6, 0.5 ng/mL TGF-β, 5 μg/mL IL-4, 5 μg/mL IFN-γ and Treg; 0.5 ng/mL TGF-β, 5 μg/mL IL-4, 5 μg/mL IFN-γ) and are supplemented with IL2 as a growth factor."}, "[9]": {"tested_on": "regulatory T cell (Treg)", "assay": "Treg development from enriched CD4+ T cells", "format": "cell-based", "conditions": "anti-TCRβ plus anti-CD28, skewing cytokines, 4 days", "description": "as §2"}, "[10]": {"tested_on": "CD8+ T cells", "assay": "CD8+ T cell viability", "format": "cell-based", "conditions": "anti-TCR and anti-CD28 coated wells, neutral conditions, 4 days", "description": "Total T cells were plated on anti-TCR and anti-CD28 coated wells in the presence of both BTK inhibitors. Neutral culture conditions were used that will not polarize T cells to a helper lineage. […] Statistical significance was calculated using the Mann Whitney T-test."}, "[11]": {"tested_on": "MDSC (monocytic) and NK cells", "assay": "Flow cytometry of peripheral blood cell subsets in CLL patients", "format": "in vivo, human", "conditions": "patients with decreasing ALC %, doses including 100 mg BID, 200 mg QD, 400 mg QD", "description": "PBMCs were stained with monoclonal antibodies conjugated to fluorescent tags (flourochromes) to identify cell subsets via flow cytometry. Non-viable cells were excluded from the analysis using the dye 7-aminoactinomycin D (7-AAD). To produce the metric of percent change, the following steps were taken. First, each cell subset was defined by hierarchical flow cytometry gating. Then, the change in frequency (between day 1 and day 28) was calculated for each cell subset. MDSC subsets were measured as a % of all myeloid cells. T cell subsets were measured as a % of all CD3^+ cells, and NK cells were measured as a % of all live CD45^+ cells. […] A cycle is 28 days. […] This may include patients who had quickly resolving lymphocytosis and those with no initial lymphocytosis. […] This may include patients who had quickly resolving lymphocytosis and those having no initial lymphocytosis. The effects in FIG. 52 to FIG. 55 are observed in multiple cohorts, at doses including 100 mg BID, 200 mg QD, and 400 mg QD. In FIG. 56 and FIG. 57, the effects on NK cells and MDSC cells are compared to a number of other markers versus % change in ALC at C1D28 and C2D28. These other markers include CD4+ T cells, CD8+ T cells, CD4+/CD8+ T cell ratio, NK-T cells, PD-1+CD4+ T cells, and PD-1+CD8+ T cells. The effects on NK cells and MDSC cells are observed to be much more pronounced than on any of these other markers."}, "[12]": {"tested_on": "CXCL12 and CCL2", "assay": "Plasma chemokines in CLL patients", "format": "in vivo, human", "conditions": "plasma of treated CLL patients"}, "[13]": {"tested_on": "80 known pharmacologic targets such as G-protein-coupled receptors, nuclear receptors, proteases, and ion channels", "assay": "Binding assays with 80 known pharmacologic targets", "conditions": "screened at 10 μM"}, "[14]": {"conditions": "Formula (2) 15 mg/kg BID orally"}}, "note": "“Also recorded” adds a separate entry of the source."}
{"smiles": "CC#CC(=O)N1CCC[C@H]1c1nc(-c2ccc(C(=O)Nc3ccccn3)cc2)c2c(N)nccn12", "note": "[Formula (2), (S)-4-(8-amino-3-(1-(but-2-ynoyl)pyrrolidin-2-yl)imidazo[1,5-α]pyrazin-1-yl)-N-(pyridin-2-yl)benzamide]", "values": [{"measurement": "glutathione binding and depletion", "setting": "[1]", "value": "binds to glutathione but does not deplete glutathione"}, {"measurement": "drug-drug interaction potential through CYP enzymes", "setting": "[2]", "value": "very unlikely to cause clinical drug-drug interactions"}, {"measurement": "EC50", "setting": "[3]", "value": 8.2, "unit": "nM"}, {"measurement": "CD8+ T cells", "setting": "[4]", "value": "increase"}, {"measurement": "immunosuppressive tumor associated Tregs", "setting": "[4]", "value": "significant reduction"}, {"measurement": "B regulatory cells (Bregs)", "setting": "[4]; tumor-bearing mice", "value": "significant reduction"}, {"measurement": "immunosuppressive tumor associated lymphocytes", "setting": "[4]; tumor-bearing mice", "value": "significant reduction"}, {"measurement": "total B cells", "setting": "[4]; tumor-bearing mice", "value": "significant reduction"}, {"measurement": "ID8 ovarian cancer growth", "setting": "[4]; versus vehicle", "value": "impairs"}, {"measurement": "CD8+ cells in tumor tissues", "setting": "[5]; [14]", "value": "significant increase"}, {"measurement": "immunosuppressive MDSCs (Gr1+Ly6CHi) in tumor tissues", "setting": "[5]; [14]", "value": "significantly reduced"}, {"measurement": "immunosuppressive TAMs (CD11b+Ly6ClowF4/80+Csf1r+) in tumor tissues", "setting": "[5]; [14]", "value": "significantly reduced"}, {"measurement": "immunosuppressive Tregs (CD4+CD25+FoxP3+) in tumor tissues", "setting": "[5]; [14]", "value": "significantly reduced"}, {"measurement": "survival at day 14", "setting": "[5]; [14]", "value": "6/6"}, {"measurement": "survival at day 28", "setting": "[5]; [14]", "value": "5/6"}, {"measurement": "tumor volume, day 28 average", "setting": "[5]; Formula (2) 15 mg/kg BID orally (N=6), day 28", "value": 272, "unit": "mm^3"}, {"measurement": "tumor volume, predose average", "setting": "[5]; cohort treated with Formula (2) 15 mg/kg BID orally (N=6), predose", "value": 165, "unit": "mm^3"}, {"measurement": "BTK occupancy in granulocytic and monocytic MDSC compartments", "setting": "[6]", "value": "Complete"}, {"measurement": "reduction of obinutuzumab-stimulated NK cell degranulation (CD56+/CD107a+ NK cells)", "setting": "[7]", "value": "minimal effect"}, {"measurement": "effect on Th17 cells / Th17 development", "setting": "[8]", "value": "no adverse effect"}, {"measurement": "effect on Treg development", "setting": "[9]", "value": "no adverse effect"}, {"measurement": "effect on CD8+ T cell viability", "setting": "[10]", "value": "not observed; also recorded: no effect"}, {"measurement": "% change in MDSC (monocytic) level over 28 days versus % ALC change", "setting": "[11]; C1D28 and C2D28", "value": "increasing MDSC (monocytic) %"}, {"measurement": "% change in NK cell level over 28 days versus % ALC change", "setting": "[11]; C1D28 or C2D28", "value": "increasing NK cell %"}, {"measurement": "CCL2 levels", "setting": "[12]", "value": "significant decrease"}, {"measurement": "CXCL12 levels", "setting": "[12]", "value": "significant decrease"}, {"measurement": "activity in binding assays", "setting": "[13]", "value": "significant activity only against the A3 adenosine receptor"}]}
